This note sets out measurements from ChEMBL document CHEMBL1124752, “Cyclobut-A and cyclobut-G: broad-spectrum antiviral agents with potential utility for the therapy of AIDS” (J Med Chem, 1990).

≈ marks a conversion by molar mass, not a printed value.

For data set [1], the system named is Human immunodeficiency virus 1. Briefly: Tested for the determination of percentage toxicity at 10 uM against HIV-1 in ATH8 cells. To be noted: human immunodeficiency virus 1, ath-8, 10 µM. Type of data set: organism-based.
Data set [2] concerns Human immunodeficiency virus 1. Briefly: Tested for the determination of percentage protection at 10 uM against HIV-1 in ATH8. The format is functional.
Data set [3] relates to Human immunodeficiency virus 1. Briefly: Tested for the determination of percentage toxicity at 500 uM against HIV-1 in ATH8 cells. The format is organism-based. Particulars: human immunodeficiency virus 1, ath-8, 500 µM.
Data set [4] has as its system Human immunodeficiency virus 1. The data set is described as follows: Tested for the determination of percentage protection at 100 uM against HIV-1 in ATH8 cells. Type of data set: functional, ATH-8.
Data set [5] deals with Human immunodeficiency virus 1. Briefly: Tested for the determination of percentage protection atuM against HIV-1 in ATH8 cells. Type of data set: functional, ATH-8.
The subject of data set [6] is Human immunodeficiency virus 1. Briefly: Tested for the determination of percentage toxicity at 100 uM against HIV-1 in ATH8 cells. To be noted: human immunodeficiency virus 1, ath-8, 100 µM. The format is organism-based.
Data set [7] deals with Human immunodeficiency virus 1. The data set is described as follows: Tested for the determination of percentage protection atuM against HIV-1 in ATH8 Cells. Type of data set: functional.
In data set [8] the test system is Human immunodeficiency virus 1. Briefly: Tested for the determination of percentage toxicity at 2 uM against HIV-1 in ATH8 cells. The format is organism-based. To be noted: human immunodeficiency virus 1, ath-8, 2 µM.
Data set [9] has as its system Murid betaherpesvirus 1. Briefly: Number of survivors per number of systemic MCMV infected mice treated with 33.4 mg/kg per day; 15/15. Type of data set: functional.
In data set [10] the test system is Murid betaherpesvirus 1. The data set is described as follows: Number of survivors per number of systemic MCMV infected mice treated with 11.2 mg/kg per day; 15/15. The format is functional.
Data set [11] has as its system Murid betaherpesvirus 1. The data set is described as follows: In vitro antiviral activity tested against MCMV Smith strain by plaque reduction assay in mouse embryo fibroblasts. The format is functional. To be noted: read-out: ID50 (the source's name).
The test system of data set [12] is Human betaherpesvirus 5. Briefly: In vitro antiviral activity tested against HCMV, EC strain by plaque reduction assay in human foreskin fibroblasts. The format is functional. In general terms: Plaque reduction counts the foci of infection that form in a cell layer.
Data set [13] deals with Human betaherpesvirus 5. The data set is described as follows: In vitro antiviral activity tested against HCMV, AD169 strain by plaque reduction assay in human foreskin fibroblasts. Type of data set: functional.
Data set [14] deals with Murid betaherpesvirus 1. The data set is described as follows: Tested for mean day to death of nonsurvivors against systemic MCMV infection in mice at 1.9 mg/kg per day. Type of data set: functional.
The subject of data set [15] is Murid betaherpesvirus 1. The data set is described as follows: In vitro antiviral activity tested against MCMV Smith strain by plaque reduction assay in mouse embryo fibroblasts. To be noted: read-out: ED50 (the source's name).
The test system of data set [16] is Human betaherpesvirus 5. The data set is described as follows: In vitro antiviral activity tested against HCMV, Davis strain by plaque reduction assay in human foreskin fibroblasts. Type of data set: functional.
In data set [17] the test system is Human betaherpesvirus 5. Briefly: In vitro antiviral activity tested against HCMV, LA strain by plaque reduction assay in human foreskin fibroblasts. Type of data set: functional.
The subject of data set [18] is Human betaherpesvirus 5. Briefly: In vitro antiviral activity tested against HCMV, CH strain by plaque reduction assay in human foreskin fibroblasts. Type of data set: functional.
Data set [19] deals with Murid betaherpesvirus 1. The data set is described as follows: Tested for the effective dose required to inhibit systemic MCMV in infected mice. The format is functional.
Data set [20] concerns Murid betaherpesvirus 1. The data set is described as follows: Number of survivors per number of systemic MCMV infected mice treated with 3.8 mg/kg per day; 10/15. Type of data set: functional.
The subject of data set [21] is Human alphaherpesvirus 2. Briefly: Tested for mean day to death of nonsurvivors against HSV-2 encephalitis in mice at 7.8 mg/kg per day. Type of data set: functional.
The subject of data set [22] is Human alphaherpesvirus 2. The data set is described as follows: Tested for mean day to death of nonsurvivors against HSV-2 encephalitis in mice at 125 mg/kg per day. Type of data set: functional.
For data set [23], the system named is Human alphaherpesvirus 1. Briefly: Tested for mean day to death of nonsurvivors against HSV-1 infection in mice at 3.1 mg/kg per day. Type of data set: functional.
Data set [24] has as its system Human alphaherpesvirus 2. The data set is described as follows: Number of survivors per number of HSV-2 infected mice treated with 125 mg/kg per day; 3/10. The format is functional.
In data set [25] the test system is Human alphaherpesvirus 2. The data set is described as follows: Tested for the effective dose required to inhibit HSV-2 encephalitis in infected mice. The format is functional.
Data set [26] has as its system Human alphaherpesvirus 2. The data set is described as follows: Number of survivors per number of HSV-2 infected mice treated with 7.8 mg/kg per day; 0/10. Type of data set: functional.
The subject of data set [27] is Human alphaherpesvirus 2. Briefly: Number of survivors per number of HSV-2 infected mice treated with 31.2 mg/kg per day; 0/10. Type of data set: functional.
For data set [28], the system named is Human alphaherpesvirus 1. The data set is described as follows: Tested for mean day to death of nonsurvivors against HSV-1 infection in mice at 12.5 mg/kg per day. Type of data set: functional.
The subject of data set [29] is Human alphaherpesvirus 2. The data set is described as follows: Tested for mean day to death of nonsurvivors against HSV-2 encephalitis in mice at 31.2 mg/kg per day. Type of data set: functional.
Setting [30] is: read-out: ED50 (the source's name).
Setting [31] is: read-out: ID50 (the source's name).

Take `Nc1nc2c(ncn2[C@H]2CC[C@@H](CO)O2)c(=O)[nH]1`: the Cytotoxicity is 0% in [1], 50% in data set [3], 4% in [6] and 0% in data set [8]. The Protection in [2] is recorded as 100%; in [4] it was 99%; in data set [5], 48%; in data set [7], 54%.

For the compound `Nc1nc2c(ncn2COC(CO)CO)c(=O)[nH]1` [GANCICLOVIR], the Survivors / treated came out at 15 with Murid betaherpesvirus 1 [9], 15 with Murid betaherpesvirus 1 [10] and 10 with Murid betaherpesvirus 1 [20]. Besides, the IC50 in the data set with Murid betaherpesvirus 1 [11], with Human betaherpesvirus 5 [12] (setting [31]), in the data set with Human betaherpesvirus 5 [13] (setting [31]), in the data set with Human betaherpesvirus 5 [16] (setting [31]), in the data set with Human betaherpesvirus 5 [17] (setting [31]) and in the data set with Human betaherpesvirus 5 [18] (setting [31]) was over 100 µg/mL in each case. Also, the EC50 with Human betaherpesvirus 5 [12] (setting [30]) was 2.8 µg/mL (≈ 11 µM); in the data set on Human betaherpesvirus 5 [13] (setting [30]), 2.7 µg/mL (≈ 10.6 µM); in the data set with Murid betaherpesvirus 1 [15] it was 1 µg/mL (≈ 3.92 µM); with Human betaherpesvirus 5 [16] (setting [30]), 3.6 µg/mL (≈ 14.1 µM); in the data set with Human betaherpesvirus 5 [17] (setting [30]) it was 2.4 µg/mL (≈ 9.4 µM); with Human betaherpesvirus 5 [18] (setting [30]), 3.1 µg/mL (≈ 12.1 µM). For the same compound, the MDD with Murid betaherpesvirus 1 [14] is reported as 7.6. Further, the ED50 (commonly the dose at which the effect has come halfway, by size or by number of responders) with Murid betaherpesvirus 1 [19] is under 1.9 mg/kg/day.

Consider `Nc1ncnc2c1ncn2[C@@H]1O[C@H](CO)[C@@H](O)[C@@H]1O` [VIDARABINE], for which the MDD stood at 7.9 in the data set with Human alphaherpesvirus 2 [21]; 11.1 with Human alphaherpesvirus 2 [22]; 6.9 in the data set on Human alphaherpesvirus 1 [23]; 13.5 with Human alphaherpesvirus 1 [28]; 9.3 with Human alphaherpesvirus 2 [29]. In addition, the figures for the Survivors / treated in the data set with Human alphaherpesvirus 2 [24], in the data set on Human alphaherpesvirus 2 [26] and in the data set with Human alphaherpesvirus 2 [27] were 3, 0 and 0, respectively. In the data set with Human alphaherpesvirus 2 [25], this compound yielded an ED50 of over 125 mg/kg/day.
